Patent US11834566B2, “High-carbon recovered paper and plastic materials with reduced endotoxin levels” (Continuus Materials Intellectual Property, LLC, priority 2020, dated 2023)

Experiment: Water-soluble endotoxin in aqueous extract of recovered paper/plastic fragments, L.A.L. kinetic chromogenic method
Details: Example 13, about 2,000 ppm glutaraldehyde on fragments
Protocol: Sample #7 from Example 1 was assayed for water-soluble endotoxins. Specifically, a clean, new 500 mL plastic bottle (500 mL capacity) was charged with recovered paper/plastic fragments (20 g, from sample #7 in Example 1) and sterile, cell-culture grade water (200 g). The bottle was immediately capped tightly and agitated in a Gilson shaker for a period of 60 s. The loaded bottle was then conditioned for 1 h at a temperature of 65-70° F. and was then subjected to agitation in the Gilson shaker for a second period of 60 s. The bottle was then opened and a sample of liquor extract (15 mL) was decanted into a sterile sample vial, which was immediately capped and labeled. Collected extract underwent endotoxin analysis using the L.A.L. kinetic chromogenic method.
Recovered paper/plastic sample batches (500 g, as-is basis, #7 sample from Example 1) were loaded into a plastic bin (16.125″×11.25″×6.75″) and were then sprayed with aqueous glutaraldehyde solutions at various target levels. In this process, the loaded bin was weighed initially and was then re-weighed repeatedly during the application of the glutaraldehyde solution until the target application level was achieved. The bin was repeatedly closed and shaken during this process in order to obtain a uniform distribution of the glutaraldehyde on the fragments. […]

With `O=CCCCC=O` [glutaraldehyde] the “water-soluble endotoxin crosslinked and converted to water-insoluble material” value was “about 99.9%”.
